Data published in paper PMC6099232, “High V‐PPase activity is beneficial under high salt loads, but detrimental without salinity” (The New Phytologist, 2018).

How the values were obtained:
IPP1 = target: T1, IPP1 (Saccharomyces cerevisiae, UniProt P00817); assay: PPi hydrolysis activity of leaf protein extract; type: biochemical; settings: activity compared with control
T1 construct: soluble PPase, cDNA under ubiquitin promoter in pCambia2200, transiently overexpressed in N. benthamiana leaves

NbVHP2 = target: T2, NbVHP2 (Nicotiana benthamiana, UniProt A0A238MN04); assay: whole-vacuole patch clamp, PPi-induced proton pump current; type: biochemical; settings: 150 μM PPi, 0 mV; 5 mM MgCl2, 100 mM K-gluconate, 0.1 mM CaCl2, pH 7.5; endogenous NbVHP background
T2 construct: gene NbPPA1.1; full-length cDNA, untagged, ubiquitin promoter in pCambia2200 with separate free eGFP; transient overexpression in N. benthamiana mesophyll; vacuoles also hold endogenous NbVHP1/2
T2 sequence (A0A238MN04 1-766): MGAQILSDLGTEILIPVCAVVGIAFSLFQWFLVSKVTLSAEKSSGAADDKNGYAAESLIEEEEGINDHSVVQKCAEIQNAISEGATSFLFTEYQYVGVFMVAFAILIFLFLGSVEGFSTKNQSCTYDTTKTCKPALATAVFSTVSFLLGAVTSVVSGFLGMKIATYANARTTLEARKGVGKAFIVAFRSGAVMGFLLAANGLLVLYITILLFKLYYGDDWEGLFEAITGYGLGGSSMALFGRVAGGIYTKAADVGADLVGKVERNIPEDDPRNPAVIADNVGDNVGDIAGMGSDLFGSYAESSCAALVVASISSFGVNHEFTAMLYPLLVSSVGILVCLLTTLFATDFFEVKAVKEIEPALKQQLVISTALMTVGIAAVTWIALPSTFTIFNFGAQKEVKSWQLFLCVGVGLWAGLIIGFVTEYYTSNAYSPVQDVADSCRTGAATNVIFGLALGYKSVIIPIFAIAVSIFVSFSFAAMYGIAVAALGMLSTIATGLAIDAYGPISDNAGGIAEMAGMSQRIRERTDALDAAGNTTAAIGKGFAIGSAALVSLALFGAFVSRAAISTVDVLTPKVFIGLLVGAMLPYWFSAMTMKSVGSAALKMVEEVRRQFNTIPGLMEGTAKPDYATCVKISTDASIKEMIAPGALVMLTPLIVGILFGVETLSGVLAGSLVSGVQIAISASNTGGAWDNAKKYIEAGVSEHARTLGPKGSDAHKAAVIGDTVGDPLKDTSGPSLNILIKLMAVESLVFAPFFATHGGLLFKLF

[1] = substrate: O=P(O)(O)OP(=O)(O)O; assay: as above; type: biochemical, Nicotiana benthamiana; settings: 0 mV, cytosolic pH 7.5, global fit of luminal pH 7.5 and 5.5, 5 mM MgCl2, 100 mM K-gluconate, 0.1 mM CaCl2, endogenous NbVHP background
[2] = substrate: O=P(O)(O)OP(=O)(O)O; assay: as above; type: biochemical, Arabidopsis thaliana; settings: 0 mV, 5 mM MgCl2, 100 mM K-gluconate, 0.1 mM CaCl2, pH 7.5, about one-third of current from endogenous NbVHP1/2

T1 sequence (P00817 2-287): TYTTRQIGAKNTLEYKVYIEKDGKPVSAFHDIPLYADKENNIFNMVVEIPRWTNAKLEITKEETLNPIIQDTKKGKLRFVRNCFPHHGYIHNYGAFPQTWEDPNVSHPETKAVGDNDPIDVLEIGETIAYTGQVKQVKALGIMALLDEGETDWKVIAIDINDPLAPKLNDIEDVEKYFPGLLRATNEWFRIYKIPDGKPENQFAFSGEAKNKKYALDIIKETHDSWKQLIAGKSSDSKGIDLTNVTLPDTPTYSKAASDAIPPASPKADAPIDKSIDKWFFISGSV

## O=P(O)(O)OP(=O)(O)O [PPi, pyrophosphate]
IPP1
  PPi hydrolysis activity of leaf protein extract: IPP1‐transformed N. benthamiana leaves exhibited a hydrolytic PPi activity
NbVHP2
  whole-vacuole patch clamp, PPi-induced proton pump current: almost four times higher in vacuoles from NbVHP1‐ or NbVHP2‐overexpressing mesophyll cells

B1: NbVHP1 (Nicotiana benthamiana) (protein)
chain: MGAALLPDLGTEIVIPVCAVIGIVFSLVQWYIVSNVKLTPESSSPSNNGKNGYGDYLIEEEEGINDQNVVVKCAEIQNAISEGATSFLFTEYQYVGIFMIAFAILIFLFLGSVEGFSTKSQPCTYNKEKLCKPALATAIFSTVSFLLGAITSVVSGFLGMKVATYANARTTLEARKGVGKAFIVAFRSGAVMGFLLAANGLLVLYIAINLFKLYYGDDWEGLFEAITGYGLGGSSMALFGRVGGGIYTKAADVGADLVGKVERNIPEDDPRNPAVIADNVGDNVGDIAGMGSDLFGSYAEASCAALVVASISSFGINHEFTAMLYPLLISSMGVLICLITTLFATDFFEIKAVKEIEPALKNQLIISTALMTVGIAIVTWTCLPSSFTIFNFGAQKVVKNWQLFLCVAVGLWAGLIIGFVTEYYTSNTYSPVQDVADSCRTGAATNVIFGLALGYKSVIIPIFAIAIAIFVSFSFAAMYGIAVAALGMLSTIATGLAIDAYGPISDNAGGIAEMAGMSHRIRERTDALDAAGNTTAAIGKGFAIGSAALVSLALFGAFVSRAAITTVDVLTPQVFIGLIVGAMLPYWFSAMTMKSVGSAALKMVEEVRRQFNTIPGLMEGTAKPDYATCVKISTDASIKEMIPPGALVMLTPLIVGIFFGVETLSGVLAGALVSGVQIAISASNTGGAWDNAKKYIEAGASEHARTLGPKGSEPHKAAVIGDTIGDPLKDTSGPSLNILIKLMAVESLVFAPFFATHGGLLFKIF
notes: full-length cDNA, untagged, ubiquitin promoter in pCambia2200 with separate free eGFP; transient overexpression in N. benthamiana mesophyll; vacuoles also hold endogenous NbVHP1/2; homodimer of c; 80 kDa polypeptide
[1]
  Km: 65 ± 9 µM

B2: AtVHP1 (Arabidopsis thaliana) (protein)
chain: MVAPALLPELWTEILVPICAVIGIAFSLFQWYVVSRVKLTSDLGASSSGGANNGKNGYGDYLIEEEEGVNDQSVVAKCAEIQTAISEGATSFLFTEYKYVGVFMIFFAAVIFVFLGSVEGFSTDNKPCTYDTTRTCKPALATAAFSTIAFVLGAVTSVLSGFLGMKIATYANARTTLEARKGVGKAFIVAFRSGAVMGFLLAASGLLVLYITINVFKIYYGDDWEGLFEAITGYGLGGSSMALFGRVGGGIYTKAADVGADLVGKIERNIPEDDPRNPAVIADNVGDNVGDIAGMGSDLFGSYAEASCAALVVASISSFGINHDFTAMCYPLLISSMGILVCLITTLFATDFFEIKLVKEIEPALKNQLIISTVIMTVGIAIVSWVGLPTSFTIFNFGTQKVVKNWQLFLCVCVGLWAGLIIGFVTEYYTSNAYSPVQDVADSCRTGAATNVIFGLALGYKSVIIPIFAIAISIFVSFSFAAMYGVAVAALGMLSTIATGLAIDAYGPISDNAGGIAEMAGMSHRIRERTDALDAAGNTTAAIGKGFAIGSAALVSLALFGAFVSRAGIHTVDVLTPKVIIGLLVGAMLPYWFSAMTMKSVGSAALKMVEEVRRQFNTIPGLMEGTAKPDYATCVKISTDASIKEMIPPGCLVMLTPLIVGFFFGVETLSGVLAGSLVSGVQIAISASNTGGAWDNAKKYIEAGVSEHAKSLGPKGSEPHKAAVIGDTIGDPLKDTSGPSLNILIKLMAVESLVFAPFFATHGGILFKYF
notes: untagged cDNA, ubiquitin promoter in pCambia2200 with separate free eGFP; transient overexpression in N. benthamiana mesophyll; about one-third of the current from endogenous NbVHP1/2
[2]
  Km: 75 ± 11 µM
